Consider 8 molecules from publication PMC6021032, “Antimycobacterial activity of nitrogen heterocycles derivatives: 7-(pyridine-4-yl)-indolizine derivatives. Part VII^8–12” (Journal of Enzyme Inhibition and Medicinal Chemistry, 2017).

Holding throughout (experiment): microbe, parasite or virus in culture
What all share (type): cell-based, Mycobacterium tuberculosis

In test [1] the test system is isoniazid resistant strain INH-R1.
Test [2] has as its system isoniazid resistant strain INH-R2.
Test [3] concerns rifampicin resistant strain RIF-R1.
For test [4], the system named is rifampicin resistant strain RIF-R2.
The subject of test [5] is fluoroquinolone resistant strain FQ-R1.
[6] abbreviates: Mycobacterium tuberculosis, INHR1.
[7] abbreviates: Mycobacterium tuberculosis, INHR2.
[8] abbreviates: Mycobacterium tuberculosis, RIFR1, read-out: IC50.
Where [9] appears, read: Mycobacterium tuberculosis, RIFR1, read-out: IC90.
Where [10] appears, read: Mycobacterium tuberculosis, RIFR1, read-out: MIC.
Where [11] appears, read: Mycobacterium tuberculosis, RIFR2, read-out: IC50.
Setting [12] is: Mycobacterium tuberculosis, RIFR2, read-out: IC90.
The mark [13] stands for this setting: Mycobacterium tuberculosis, RIFR2, read-out: MIC.
The mark [14] stands for this setting: Mycobacterium tuberculosis, FQR1, read-out: IC50.
[15] abbreviates: Mycobacterium tuberculosis, FQR1, read-out: IC90.
The mark [16] stands for this setting: Mycobacterium tuberculosis, FQR1, read-out: MIC.
The mark [17] stands for this setting: Mycobacterium tuberculosis, RIFR1.
The mark [18] stands for this setting: Mycobacterium tuberculosis, RIFR2.
The mark [19] stands for this setting: Mycobacterium tuberculosis, FQR1.

A word on the IC50: it is the concentration at which inhibition is half-maximal. The IC90 is the concentration at which the effect reaches the 90% level.

Converted amounts (≈) assume the structure as drawn. Where two headings read alike, the source gives them in different places.

Regarding `CCOC(=O)c1cc(C(=O)c2ccc(Cl)cc2)n2ccc(-c3cc[n+](CC(=O)c4ccc(C)cc4)cc3)cc12` [Compound 6i], the IC50 in test [1] (setting [6]) was 13 µM; in test [2] (setting [7]) it was 9.8 µM; in test [3] (setting [8]), 7.7 µM; in test [4] (setting [11]), 12 µM; in test [5] (setting [14]), 11 µM. The IC90 came to 23 µM in test [1] (setting [6]); 20 µM in test [2] (setting [7]); 15 µM in test [3] (setting [9]); 22 µM in test [4] (setting [12]); 28 µM in test [5] (setting [15]). Also, the MIC in test [1] (setting [6]) is 22 µM; in test [2] (setting [7]), 20 µM; in test [3] (setting [10]) it was 15 µM; in test [4] (setting [13]), 22 µM; in test [5] (setting [16]) it was 27 µM.

Turning to `CO[C@H]1/C=C/O[C@@]2(C)Oc3c(C)c(O)c4c(O)c(c(/C=N/N5CCN(C)CC5)c(O)c4c3C2=O)NC(=O)/C(C)=C\C=C\[C@H](C)[C@H](O)[C@@H](C)[C@@H](O)[C@@H](C)[C@H](OC(C)=O)[C@@H]1C` [Rifampicin, reference compound], the IC50 in test [1] (setting [6]) is 0.012 µM; in test [2] (setting [7]), 0.007 µM; in test [3] (setting [17]) it was 1.1 µM; in test [4] (setting [18]), more than 50 µM; in test [5] (setting [19]), 0.013 µM. Moreover, the concentration for an effect of 90% (IC90) is 0.031 µM in test [1] (setting [6]); 0.016 µM in test [2] (setting [7]); 3.8 µM in test [3] (setting [17]); more than 50 µM in test [4] (setting [18]); 0.033 µM in test [5] (setting [19]). Besides, the MIC in test [1] (setting [6]) was 0.022 µM (≈ 0.0181 µg/mL); in test [2] (setting [7]), 0.013 µM (≈ 0.0107 µg/mL); in test [3] (setting [17]) it was 5.3 µM (≈ 4.36 µg/mL); in test [4] (setting [18]), more than 50 µM; in test [5] (setting [19]) it was 0.024 µM (≈ 0.0198 µg/mL).

Take `C[C@H]1COc2c(N3CCN(C)CC3)c(F)cc3c(=O)c(C(=O)O)cn1c23` [Levofloxacin, levofloxacin, reference compound]: the IC50 in test [1] (setting [6]) turned out to be 1.9 µM; in test [2] (setting [7]), 2.4 µM; in test [3] (setting [8]), 1.6 µM; in test [4] (setting [11]) it was 1.7 µM; in test [5] (setting [14]), 49 µM. Also, the concentration for an effect of 90% (IC90) was 3 µM in test [1] (setting [6]); 4.3 µM in test [2] (setting [7]); 2.6 µM in test [3] (setting [9]); 3 µM in test [4] (setting [12]); 110 µM in test [5] (setting [15]). Also, the MIC in test [1] (setting [6]) amounted to 2.9 µM (≈ 1.05 µg/mL); in test [2] (setting [7]), 3.5 µM (≈ 1.26 µg/mL); in test [3] (setting [10]) it was 2.7 µM (≈ 0.976 µg/mL); in test [4] (setting [13]) it was 2.9 µM (≈ 1.05 µg/mL); in test [5] (setting [16]), 110 µM (≈ 39.8 µg/mL).

Consider `CCOC(=O)c1cc(C(=O)c2ccccc2)n2ccc(-c3cc[n+](CC(=O)c4ccc(C)cc4)cc3)cc12.[Br-]` [Compound 6a, 4-(3-Benzoyl-1-(ethoxycarbonyl)indolizine-7-yl)-1-(2-oxo-2-(p-tolyl)ethyl)pyridin-1-ium bromide], for which the IC50 is 13 µM in test [1] (setting [6]); 12 µM in test [2] (setting [7]); 8.3 µM in test [3] (setting [8]); 12 µM in test [4] (setting [11]); 15 µM in test [5] (setting [14]). In addition, the IC90 in test [1] (setting [6]) was found to be 35 µM; in test [2] (setting [7]), 22 µM; in test [3] (setting [9]), 13 µM; in test [4] (setting [12]), 29 µM; in test [5] (setting [15]), 32 µM. Besides, the MIC is 33 µM in test [1] (setting [6]); 19 µM in test [2] (setting [7]); 14 µM in test [3] (setting [10]); 31 µM in test [4] (setting [13]); 31 µM in test [5] (setting [16]).

Take “4-[3-(4-Chlorophenyl)-1-(ethoxycarbonyl)indolizine-7-yl)-1-(2-(4-methoxyphenyl)-2-oxoethyl)pyridine-1-ium bromide [Compound 6c]”: the MIC in test [1] (INH-R1) was 14 µM; in test [2] (INH-R2), 16 µM; in test [3] (read-out: MIC) it was 10 µM; in test [4] (read-out: MIC), 13 µM; in test [5] (read-out: MIC), 16 µM. In addition, the concentration for half-maximal inhibition (IC50) in test [1] (INH-R1, read-out: IC50) stood at 6.9 µM; in test [2] (INH-R2, read-out: IC50) it was 6.2 µM; in test [3] (read-out: IC50), 6.5 µM; in test [5] (read-out: IC50), 8 µM. Also, the IC90 came to 14 µM in test [1] (INH-R1, read-out: IC90); 19 µM in test [2] (INH-R2, read-out: IC90); 10 µM in test [3] (read-out: IC90); 12 µM in test [4] (read-out: IC90); 16 µM in test [5] (read-out: IC90).

For `CCOC(=O)c1cc(C(=O)c2ccc(Cl)cc2)n2ccc(-c3cc[n+](CC(=O)c4cccc(OC)c4)cc3)cc12` [Compound 6d, 4-(3-(4-Chlorobenzoyl)-1-(ethoxycarbonyl)indolizine-7-yl)-1-(2-(3-methoxyphenyl)-2-oxoethyl)pyridin-1-ium], the IC50 in test [1] (setting [6]) turned out to be 14 µM; in test [2] (setting [7]), 15 µM; in test [3] (setting [8]) it was 12 µM; in test [4] (setting [11]), 12 µM; in test [5] (setting [14]) it was 21 µM. Besides, the IC90 in test [1] (setting [6]) was 36 µM; in test [2] (setting [7]) it was 35 µM; in test [3] (setting [9]), 24 µM; in test [4] (setting [12]) it was 14 µM; in test [5] (setting [15]) it was 32 µM. In addition, the MIC in test [1] (setting [6]) is 28 µM; in test [2] (setting [7]) it was 30 µM; in test [3] (setting [10]), 22 µM; in test [4] (setting [13]) it was 16 µM; in test [5] (setting [16]), 32 µM.

In the case of `CCOC(=O)c1cc(C(=O)c2ccc(Br)cc2)n2ccc(-c3cc[n+](CC(=O)c4cccc(OC)c4)cc3)cc12` [Compound 6h, 4-(3-(4-Bromobenzoyl)-1-(ethoxycarbonyl)indolizine-7-yl)-1-(2-(3-methoxyphenyl)-2-oxoethyl)pyridin-1-ium], the IC50 amounted to 18 µM in test [1] (setting [6]); 16 µM in test [2] (setting [7]); 13 µM in test [3] (setting [8]); 15 µM in test [4] (setting [11]); 26 µM in test [5] (setting [14]). Further, the IC90 in test [1] (setting [6]) was more than 50 µM; in test [2] (setting [7]) it was 43 µM; in test [3] (setting [9]), 26 µM; in test [4] (setting [12]) it was more than 50 µM; in test [5] (setting [15]), more than 50 µM. Further, the MIC in test [1] (setting [6]) is more than 50 µM; in test [2] (setting [7]) it was more than 50 µM; in test [3] (setting [10]), 24 µM; in test [4] (setting [13]) it was more than 50 µM; in test [5] (setting [16]), more than 50 µM.

For `NNC(=O)c1ccncc1` [Isoniazid, reference compound], the half-maximal inhibitory concentration (IC50) in test [1] (setting [6]) was more than 200 µM; in test [2] (setting [7]), more than 200 µM; in test [3] (setting [8]), 0.063 µM; in test [4] (setting [11]), 0.27 µM; in test [5] (setting [14]), 0.13 µM. Besides, the IC90 was more than 200 µM in test [1] (setting [6]); more than 200 µM in test [2] (setting [7]); 0.094 µM in test [3] (setting [9]); 0.3 µM in test [4] (setting [12]); 0.15 µM in test [5] (setting [15]). Also, the MIC in test [1] (setting [6]) was more than 200 µM; in test [2] (setting [7]) it was more than 200 µM; in test [3] (setting [10]) it was 0.092 µM (≈ 0.0126 µg/mL); in test [4] (setting [13]), 0.31 µM (≈ 0.0425 µg/mL); in test [5] (setting [16]) it was 0.16 µM (≈ 0.0219 µg/mL).
